Assay results from patent US8377473B2, “Slow release magnesium composition and uses thereof” (Magceutics, Inc., priority 2009, dated 2013).

Legend:
rats [1] = settings: young and aged rats, cited from earlier work
diabetic patients = settings: nearly 1 g of magnesium daily for 1 month; cited from earlier work
[2] = cited from earlier work
[3] = Magnesium content in the cerebrospinal fluid; settings: 24 days of treatment, approximately 50 mg/kg/day elemental magnesium via drinking water
Excerpt: (§1) Statistical analysis: All data were approximated with a normal distribution. […] One-way analysis of variance was used to analyze the cerebrospinal fluid data. GraphPad prism was used for data analysis (version 5.00, GraphPad software Inc.).

rats [4] = experiment: Margin of safety: incidence of diarrhea with magnesium preparations in drinking water; settings: elemental magnesium via drinking water for 4 days, non-linear regression
Protocol: Animals: Adult male Sprague-Dawley rats were obtained from Wei Tong Li Hua Beijing, China. Rats were individually-housed with free access to standard food and water under a 12:12 h reversed light-dark cycle, with light onset at 8:00 p.m. […] All experimental procedures were approved by the Tsinghua University Committees on Animal Care.
(Magceutics Inc., USA), Magnesium chloride and glycinate (Modern Eastern Fine Chemical, China), magnesium gluconate and citrate (Sigma-Aldrich, Germany). Lactose was obtained from Biobasic Inc (Beijing, China).
The magnesium dose dissolved in the daily intake volume of water was determined based on intake of ˜30 ml/day/rat. Animals were supplied with the magnesium supplemented drinking water for 4 days, after which time the number of animals that developed diarrhea was monitored and calculated as a percentage of the total number of animals in the respective group.
as §1

| Compound | cognitive function (rats [1]; food containing 2% magnesium oxide for 8 days) | side-effect (rats [1]; food containing 2% magnesium oxide) | increase of serum magnesium level (diabetic patients) | metabolic control (diabetic patients) | magnesium absorption rate ([2]; Firoz and Graber 2001) | bioavailability ([2]; Ranade and Somberg 2001) | magnesium concentration in cerebrospinal fluid ([Mg2+]CSF) [3] | TD50 (toxic dose required to induce diarrhea in 50% of animals) (rats [4]) |
| --- | --- | --- | --- | --- | --- | --- | --- | --- |
| [O]=[Mg] [magnesium oxide] | some sign of improvement | diarrhea and weight loss | about 10% | only minor improvement | about 4% | 4% |  |  |
| [Cl-].[Cl-].[Mg+2] [magnesium chloride] |  |  |  |  |  |  | relatively limited effect | 90.0 mg/kg/day |
| magnesium gluconate |  |  |  |  |  |  |  | 99.7 mg/kg/day |
